Experimental data taken from patent US8143447B2, “Treatment of cancer” (BiPar Sciences, Inc., priority 2006, dated 2012).
Entries after “also recorded” stand apart in the source; their conditions may differ.

Columns and labels:
adult tumor cell lines = details: a number of adult tumor cell lines; cited from earlier work
[1] = system: established adult tumor lines s.c. implanted in nude mice; details: administered p.o.; cited from earlier work
[2] = BA metabolite identification by LC/MS/MS from canine plasma; type: in vivo, dog; details: canine plasma after BA administration; equivalents measured using BSI-201 in the 1 μg/ml spike sample as reference standard
Description: (§1) Plasma samples were obtained from dog, rat and mouse studies, in which animals were administered 4-iodo-3-nitrobenzamide (BA). Plasma and tumor samples were prepared for HPLC injection by precipitating plasma (50 μl) with 3× volumes (150 μl) of acetonitrile. Tissue samples were prepared for HPLC injection by adding 1 μl of acetonitrile per mg of tissue, then homogenizing with an electric homogenizer. Following centrifugation, 150 μl of each supernatant was evaporated to dryness, reconstituted in 50 μl of 0.2% formic acid in water and analyzed by chromatography and mass spectrometry techniques (LC/MS/MS conditions). LC/MS/MS conditions are: HPLC (Shimadzu VP System); Mobile Phase: 0.2% formic acid in water (A) and 0.18% formic acid in methanol (B); Column: 1×50 mm Thermo BetaBasic C18 column; Injection volume: 25 μL; Gradient: 0-60% B in 30 minutes; Flow Rate: 100 μL/min; Mass Spectrometer: Applied Biosystems/MDS SCIEX Q-STAR; Interface: IonSpray split at 1/10; Parent Ion Scan: TOF Positive from 200-900 amu; Product Ion Scan: TOF Product Ion from 60-900 amu of most intense Ion in Parent Ion Scan; TOF calibration: Externally calibrated using Renin Substrate. Results of metabolite identification from dog and mouse plasma are depicted in Tables 1-3, as follows: […]

[3] = BA metabolite identification by LC/MS/MS from murine plasma; type: in vivo, mouse; details: murine plasma after BA administration; equivalents measured using BSI-201 in the 1 μg/ml spike sample as reference standard
Description: as §1

[4] = BA metabolite identification by LC/MS/MS from canine plasma and red blood cells; type: in vivo, dog; details: equivalents by 270 nm UV peak area of BSI-201 in the 5 μg/ml spike sample
Description: as §1

HTC116 cells = assay: Cell-cycle analysis (DNA content, flow cytometry); type: cell-based; details: treated for 19 hours
Description: HCT116 and Hela cells were obtained from ATCC. For DNA content analysis, 2×10^5 cells were washed twice with PBS and fixed in 70% ethanol. Cells were treated with 100 units/mL RNase A for 20 minutes at 37° C., resuspended in cold PBS containing Alexa Fluor® 405 fluorescent stain (Invitrogen) according to the manufacturer's protocol. Cells were analyzed by flow cytometry. FIG. 1 illustrates (FACS dot plots and histograms) cell-cycle analysis in HTC116 cells treated with PARP-1 inhibitor (4-iodo-3-nitrobenzamide or “BA”) for 19 hours.

KB 3-1 cells = assay: Colony-forming assay, KB 3-1 cells; type: cell-based, human; details: KB 3-1 (MDR1 normal) cells, 0-100 μM, 14 days
Text: (§2) KB-V1 is a vinblastine resistant clone of KB-3-1 human carcinoma cell line (Fojo, A. T., J Whang-Peng, M. M. Gottesman, and I. Pastan. 1985. Amplification of DNA sequences in human multidrugresistant KB carcinoma cells. Proc. Natl. Acad. Sci. USA 82:7661-7665., Shen, D.-W., C. Cardarelli, J lwang, M. Cornwell, N. Richert, S. Ishii, I. Pastan, and M. M. Gottesman. 1986. Multiple drug-resistant human KB carcinoma cells independently selected for high-level resistance to colchicine, Adriamycin, or vinblastine show changes in expression of specific proteins. J. Biol. Chem. 261:7762-7770). Cells were propagated in Eagle minimal essential medium with 10% fetal bovine serum.
(§3) Cells were trypsinized, counted, and diluted to a final concentration of 10^6 cells/ml. Colony-forming assays were performed by plating an appropriate number of cells into culture dishes in triplicates and treated with 0-100 μM of a compound. After 14 days, cells were fixed and stained with 1% crystal violet, and colonies were counted.

KB V-1 cells = assay: Colony-forming assay, KB V-1 cells (MDR1 overexpressing); type: cell-based, human; details: KB V-1 (MDR1 overexpressing, vinblastine resistant) cells, 0-100 μM, 14 days
Text: as §2, §3

| Compound | IC50 of tumor cell growth inhibition (adult tumor cell lines) | growth of established adult tumor lines [1] | toxicities [1] | Approximate [2] | Approximate [3] | Approximate μg/ml Plasma ([4]; canine plasma) | Approximate μg/ml RBC ([4]; canine red blood cells) | S phase cell cycle (HTC116 cells; compared to control) | number of cells in the G1 phase (HTC116 cells; control 18.6%) | number of cell colonies / cell death (KB 3-1 cells) | number of cell colonies / cell death (KB V-1 cells) |
| --- | --- | --- | --- | --- | --- | --- | --- | --- | --- | --- | --- |
| Nc1ccccc1NC(=O)c1ccc(CNC(=O)OCc2cccnc2)cc1 [MS-27-275] | submicromolar range | inhibited the growth | minimal toxicities | – | – | – | – | – | – | – | – |
| NC(=O)c1ccc(I)c(O)c1 [M4 (263 m/z)] | – | – | – | ~12 ng/mL | ~56 ng/mL | – | – | – | – | – | – |
| NC(=O)c1ccc(I)c([N+](=O)[O-])c1 [BA, 4-iodo-3-nitrobenzamide] | – | – | – | ~1.9 ng/mL | ~3.7 ng/mL | ~2.1 µg/mL | ~1.6 µg/mL | decrease | 48.6% | dose-dependent cell death; also recorded: reduces the number of cell colonies in a dose-dependant manner | dose-dependent cell death; also recorded: reduces the number of cell colonies in a dose-dependant manner |
